Assays:
[1] = system: spinal cord contused rats; assay: Locomotor recovery (BBB scale) after weight-drop spinal cord contusion at T10; format: in vivo, rat
Procedure: (§1) Adult female Wistar rats (˜245 g) were obtained from Charles River Breeding Laboratories and housed in a temperature-regulated (23° C.) animal facility. The spinal cords were contused with a weight drop apparatus similar to the NYU impactor (See also Basso, D. M., M. S. Beattie, and I. C. Breslmahan, 1996, Graded histological and locomotor outcomes after spinal cord contusion using the NYU weight-drop device versus transection, Exp. Neurol. 139:244–256, incorporated by reference) at the level of T10. Prior to surgery, the rats were anesthetized with an injection of pentobarbital sodium (60 mg/kg ip) and laminectomy was performed aseptically at T9–T10 to expose the spinal cord. The spinous processes at T8 and T11 were fixed with clamps to prevent movement during contusion. Body temperature was maintained at 37° C. during the period of anesthesia with a temperature-controlled heating pad and rectal thermometer. Graded injuries were produced in groups of rats by dropping a 10 g rod with a tip diameter of 2.5 mm from heights of either 6.25, 12.5, 25 or 50 mm as in the experiments of Basso identified above. Following contusion, each incision was closed with woundclips. An additional four groups of identically contused rats received clenbuterol received (from Chinoin, Mexico City) that was administered by adding it to the drinking water at a dose of 9 mg/L. This concentration delivers clenbuterol at a rate of 1.6 mg/kg body wt./day. The animals had access to water and food in their cages immediately after recovery from surgery and throughout the experiment. Water consumption is not believed to be affected by the addition of clenbuterol. Oral dosing is particularly effective over prolonged periods because clenbuterol readily enters the circulation via the gut, has high receptor affinity and a relatively long half-life. In all, 8 treatment groups (Table I) were examined. […]
Recovery of locomotor function was determined with BBB scale as previously described. […] For the three days following contusion and at one week intervals thereafter for a total of six weeks, each rat was scored for locomotor function according to the BBB scale. […] For several rats in treatment groups receiving 50 mm weight drops, treatment conditions became known and were scored by one observer. […]
To confirm that salbutamol, a β2-adrenoceptor agonist, can enhance recovery of locomotor function following spinal cord injury. Groups of untreated and salbutamol-treated rats were evaluated with the 21 point Basso, Beattie and Bresnahan (BBB) scale (FIG. 9) following spinal cord contusion with a weight-drop device (10 g, 25 mm drop), Salbutamol was administered via subcutaneously implanted osmotic minipumps (Alzet) that delivered 1 mg/kg body weight/day during the 28 day recovery period. […]

[2] = system: interleukin-6 secretion; settings: cited from earlier work
[3] = system: cultured hippocampal neurons; settings: in vitro; the NGF protected cultured hippocampal neurons from glutamate excitotoxicity; cited from earlier work
[4] = system: spinal cord contused rats; assay: Spinal cord histomorphometry: % spared tissue at the contusion center; format: in vivo, rat; settings: 6 weeks, 9 mg/L in drinking water
Procedure: as §1, with “examined. All of the procedures involving vertebrate animals were approved by the Institutional Animal Care and Use Committee of New York Medical College.” for “examined.”

[5] = system: motor neuron degeneration (Mnd) mice; assay: Motoneuron counts and abnormal eccentric nuclei in the lumbar spinal cord; format: in vivo, mouse
[6] = system: motor neuron degeneration (Mnd) mice; assay: Behavioral tests of walking and hindlimb splaying (Messer and Flaherty), number of abnormal trials; format: in vivo, mouse; settings: of 50 trials per week, from 31 to 37 weeks of age, clenbuterol-treated n=5, P<0.01 versus untreated
Procedure: Behavioral tests developed by Messer and Flaherty in their original description of the Mnd mice were also performed. As described in their publication (J. Neurogenetics 3:345–355, 1986), incorporated by reference, five tests of different aspects of walking and hindlimb splaying are run each week with 10 trials for each test for a total of 50 trials. The mean number of abnormal trials occurring in clenbuterol-treated (n=5) and untreated (n=7) Mnd mice were determined until the mice were 37 weeks of age at the end of the experiment (FIG. 8). Beginning at 31 weeks of age, there is a marked worsening of behavioral scores. […] The frequency of abnormal motoneurons in each mouse was highly correlated with locomotor scores. Clenbuterol reduced the frequency of abnormal motoneurons to 8.3±0.7% (P<0.015) indicating a neurotrophic effect of β2-agonist treatment.

[7] = in vivo; cited from earlier work
[8] = system: motor neuron degeneration (Mnd) mice; assay: Forelimb and hindlimb grip strength in Mnd and WT mice; format: in vivo, mouse; settings: 9 mg/L in drinking water until 37 weeks of age
Procedure: (§2) Forelimb and hindlimb grip strength was measured in groups of Mnd and wild type (WT) mice that were either treated with clenbuterol in the drinking H2O (9 mg/L) until 37 weeks of age or were untreated. Forelimb and hindlimb grip strength was reduced 44–66% in Mnd compared to WT mice (FIG. 6). Clenbuterol caused relative increases in forelimb grip strength that were greater in Mnd (75%) compared to WT (20%, P<0.05, t test) mice. […] These effects of genotype and clenbuterol treatment were paralleled by similar changes in muscle mass. Thus the hindlimb soleus and extensor digitorum longus muscles were reduced 27–32% in Mnd compared to WT mice (FIG. 7). Clenbuterol caused relative increases of 46% and 29% in soleus weight in Mnd and Wt mice, respectively.

[9] = system: brain ischemia; settings: in vivo; cited from earlier work
[10] = system: motor neuron degeneration (Mnd) mice; assay: Hindlimb muscle weight in Mnd and WT mice; format: in vivo, mouse; settings: 9 mg/L in drinking water
Procedure: as §2

CC(C)(C)NCC(O)c1cc(Cl)c(N)c(Cl)c1 (stereo not shown) [clenbuterol]
improvement in final BBB score due to clenbuterol ([1]; 25 mm weight drop, versus untreated, 6 weeks): 9.3 levels | increase in BBB score ([1]; 50 mm weight drop, fourth, fifth and sixth weeks, versus untreated): 5.1–5.8 levels | mean of the final BBB scores ([1]; mean ±SE over the four clenbuterol-treated groups (6.25-50 mm weight drops), 6 weeks, 9 mg/L in drinking water, untreated 8.0±2.9, P<0.05): 13.2±1.5 | secretion of IL-6 [2]: greatly increases secretion of IL-6 | release of NGF [3]: caused the release of NGF | sparing of spinal cord tissue accounted for by treatment ([4]; 12.5 mm weight drop): 23% | sparing of spinal cord tissue accounted for by treatment ([4]; 25 mm weight drop): 33% | sparing of spinal cord tissue accounted for by treatment ([4]; 50 mm weight drop): 34% | motoneuron counts in the lumbar spinal cord [5]: not significantly reduced in Mnd mice or affected by clenbuterol | frequency of abnormal motoneurons (abnormal eccentric nuclei) ([5]; clenbuterol-treated, untreated Mnd 12.6±0.9%, WT 2.3±0.2%, P<0.015): 8.3±0.7% | mean number of abnormal trials [6]: 6.3±1.6 | blood-brain barrier passage [7]: crosses the blood-brain barrier | increase in hindlimb grip strength ([8]; Mnd mice): 29% | relative increase in forelimb grip strength ([8]; Mnd mice): 75% | effect on hindlimb strength ([8]; WT mice): did not significantly affect | relative increase in forelimb grip strength ([8]; WT mice): 20% | effect on hippocampal neurons following ischemia [9]: neuroprotective effects | infarct volume due to brain ischemia [9]: reduced infarct volume | increase in extensor digitorum longus muscle weight ([10]; Mnd mice): 21% | relative increase in soleus weight ([10]; Mnd mice): 46% | relative increase in soleus weight ([10]; Wt mice): 29%

CC(C)(C)NCC(O)c1ccc(O)c(CO)c1 (stereo not shown) [salbutamol]
recovery of locomotor function (BBB scale) ([1]; 10 g, 25 mm drop, 1 mg/kg body weight/day by subcutaneous osmotic minipump, 28 days, versus untreated control, P<0.05): significantly greater
